Measured values taken from US5750550A, “2-(pyrazol-5-yl-oxymethyl)-1,2-benzisothiazol-3 (2H)-One 1, 1-dioxides and compositions and method of use thereof” (Sanofi, priority 1995, dated 1998).

molecular target: T1, human leukocyte elastase (Homo sapiens, UniProt P08246); test: human leukocyte elastase (HLE) inhibitory activity, substrate MeOSuc-Ala-Ala-Pro-Val-pNA; type: biochemical; details: pH 7.8, 25° C., steady-state velocities
T1 sequence (P08246 30-267): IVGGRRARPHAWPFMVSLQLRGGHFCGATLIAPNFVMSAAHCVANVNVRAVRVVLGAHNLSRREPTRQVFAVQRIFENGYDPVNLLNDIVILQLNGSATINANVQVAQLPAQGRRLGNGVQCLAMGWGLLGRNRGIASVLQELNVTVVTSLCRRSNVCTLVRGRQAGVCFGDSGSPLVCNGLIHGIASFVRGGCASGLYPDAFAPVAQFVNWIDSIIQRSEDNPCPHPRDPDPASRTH
Experimental: The test compound (inhibitor) is dissolved in DMSO in a vial to produce an inhibitor stock solution which has a concentration in the range of 200-1000 μM. The inhibitor stock solution is diluted (1:4, 1:16 and 1:64) into assay vials (vials 1, 2 and 3 respectively) containing 2.4 mL of buffer solution (50 mM N-[2-hydroxyethyl] piperazine-N'-[2-ethanesulfonic acid]/NaOH, 500 mM NaCl, pH 7.8 at 25° C.) and DMSO is added so that the total volume in each vial is 3.2 mL. 70 μL, 50 μL, 35 μL and 25 μL of inhibitor from assay vial 1 is placed into the first four wells of a 96-well microtiter plate and each well is made up to 90 μL total volume with the addition of a 25% DMSO/buffer solution. The inhibitor from assay vials 2 and 3 is processed in a similar manner and placed in wells 5-12 respectively to afford a total of 12 different inhibitor concentrations. Four wells (wells 13-16) containing 90 μL of the 25% DMSO/buffer solution but no inhibitor are also run simultaneously with the inhibited wells as a control. 150 μL of substrate solution (prepared by the addition of 500 μL of the human leukocyte elastase (HLE) substrate MeOSuc-Ala-Ala-Pro-Val-pNA (18.7 mM in DMSO) to 19.5 mL of buffer solution) is then added simultaneously into each of the 16 wells and the solution in each well was thoroughly mixed.
The 96-well microtiter plate is placed into a Microplate Reader #89815A spectrophotometer and 110 μL of the enzyme solution (prepared as follows: a mixture of 20 mL of buffer solution and 20 mg of bovine serum albumen is gently vortexed in a scintillation vial and 5 μL HLE stock solution (1 mg/mL dissolved in deionized water) is added) is added simultaneously to each of the 16 wells. Each of the solutions in the wells is throughly mixed and then the time-dependent absorbance data is collected at an absorbance of 410 nm until the assay is complete. It should be noted that although this assay method can be done manually, it is preferred to perform the assay robotically using a Hewlett Packard MicroAssay System Robot. the absorbance versus time data thus obtained affords curves the final slope of which is equal to the final steady-statevelocities (VF). Using the program ENZFITTER (Elsevier software), the progress curves for the four control assays ([I]=0 are fit by linear regression to yield the enzyme reaction velocity values in the absences of inhibitor (Vo) which are averaged to produce a single fixed value. The inhibition constant Ki (nM) is then obtained from a plot of [formula] which affords a linear plot wherein: [formula] and [S] is the concentration of the substrate and Km is the Michaelis constant.
Table I summarizes the results obtained from the testing of compounds of the invention for human leukocyte elastase inhibitory activity.

SMILES | Ki [nM]
CC(C)c1cc(OCCCCCC(=O)O)cc2c1C(=O)N(COc1cc(C(F)(F)F)nn1-c1ccccc1)S2(=O)=O [37 (f), 4-isopropyl-6-[5-(carboxy)-enthyloxy]-2-(1-phenyl-3-trifluoromethylpyrazol-5-yl-oxymethyl)-1,2-benzisothiazol-3(2H)-one 1,1-dioxide] | 0.081
CC(C)c1cc(OCCC(C)(C)C(=O)O)cc2c1C(=O)N(COc1cc(C(F)(F)F)nn1-c1ccccc1)S2(=O)=O [38 (d)] | 0.18
CC(C)c1cc(O)cc2c1C(=O)N(COc1cc(C(F)(F)F)nn1-c1ccc(Cl)cc1)S2(=O)=O [39 (a), 4-isopropyl-6-hydroxy-2-[1-(4-chlorophenyl)-3-trifluoromethylpyrazol-5-yl-oxymethyl]-1,2-benzisothiazol-3(2H)-one 1,1-dioxide] | 1.9
CC(C)c1cc(OCCCC(=O)O)cc2c1C(=O)N(COc1cc(C(F)(F)F)nn1-c1ccc(Cl)cc1)S2(=O)=O [39 (c), 4-isopropyl-6-[3-(carboxy)propoxy]-2-[1-(4-chlorophenyl)-3-trifluoromethylpyrazol-5-yl-oxymethyl]-1,2-benzisothiazol-3(2H)-one 1,1-dioxide] | 0.074
COc1ccc(COC(=O)c2ccc(COc3cc(C(C)C)c4c(c3)S(=O)(=O)N(COc3cc(C(F)(F)F)nn3-c3ccccc3)C4=O)o2)cc1 [42 (b)] | 0.081
COc1cc(C(C)C)c2c(c1)S(=O)(=O)N(COc1cc(C(F)(F)F)nn1-c1ncccc1C)C2=O [45 (b), 4-isopropyl-6-methoxy-2-[1-(3-methyl-2-pyridyl)-3-trifluoromethylpyrazol-5-yl-oxymethyl]-1,2-benzisothiazol-3(2H)-one 1,1-dioxide] | 0.061
COc1cc(C(C)C)c2c(c1)S(=O)(=O)N(COc1cc(C#N)nn1-c1ccc(Cl)cc1Cl)C2=O [50 (b), 4-isopropyl-6-methoxy-2-[1-(2,4-dichlorophenyl)-3-cyanopyrazol-5-yl-oxymethyl]-1,2-benzisothiazol-3(2H)-one 1,1-dioxide] | 0.058
COc1cc(C(C)C)c2c(c1)S(=O)(=O)N(COc1cc(C(F)(F)F)nn1-c1cccc(Cl)c1)C2=O [51 (b), 4-isopropyl-6-methoxy-2-[1-(3-chlorophenyl)-3-trifluoromethylpyrazol-5-yl-oxymethyl]-1,2-benzisothiazol-3(2H)-one 1,1-dioxide] | 0.13
COc1cc(C(C)C)c2c(c1)S(=O)(=O)N(COc1cc(Br)nn1-c1ccccc1)C2=O [52 (b), 4-isopropyl-6-methoxy-2-[1-phenyl-3-bromopyrazol-5-yl-oxymethyl]-1,2-benzisothiazol-3(2H)-one 1,1-dioxide] | 0.066
COc1cc(C(C)C)c2c(c1)S(=O)(=O)N(COc1cc(C)nn1C)C2=O [Example 1, 4-isopropyl-6-methoxy-2-(1,3-dimethylpyrazol-5-yl-oxymethyl)-1,2-benzisothiazol-3(2H)-one 1,1-dioxide] | 0.73
COc1cc(C(C)C)c2c(c1)S(=O)(=O)N(COc1cc(C(F)(F)F)nn1-c1ccccc1)C2=O [Example 3, 4-isopropyl-6-methoxy-2-(1-phenyl-3-trifluoromethylpyrazol-5-yl-oxymethyl)-1,2-benzisothiazol-3(2H)-one 1,1-dioxide] | 0.068
COc1cc(C(C)C)c2c(c1)S(=O)(=O)N(COc1cc(C)nn1-c1ccc([N+](=O)[O-])cc1)C2=O [Example 7, 4-isopropyl-6-methoxy-2-[1-(p-nitrophenyl)-3-methylpyrazol-5-yl-oxymethyl]-1,2-benzisothiazol-3(2H)-one 1,1-dioxide] | 0.076
CC(C)c1cc(O)cc2c1C(=O)N(COc1cc(C(F)(F)F)nn1-c1ccccc1)S2(=O)=O [Example 9, 4-iso-ropyl-6-hydroxy-2-(1-phenyl-3-trifluoromethylpyrazol-5-yl-oxymethyl)-1,2-benzisothiazol-3(2H)-one 1,1-dioxide] | 0.78
CCOC(=O)c1cc(OCN2C(=O)c3c(C(C)C)cc(OC)cc3S2(=O)=O)n(-c2ccccc2)n1 [Example 12, 4-isopropyl-6-methoxy-2-(1-phenyl-3-ethoxycarbonylpyrazol-5-yl-oxymethyl)-1,2-benzisothiazol-3(2H)-one 1,1-dioxide] | 0.077
CC(C)c1cc(OCc2ccc(CN(C)C)o2)cc2c1C(=O)N(COc1cc(C(F)(F)F)nn1-c1ccccc1)S2(=O)=O [Example 13] | 0.12
COc1cc(C(C)C)c2c(c1)S(=O)(=O)N(COc1cc(C(=O)O)nn1-c1ccccc1)C2=O [Example 21, 4-isopropyl-6-methoxy-2-[1-phenyl-3-(carboxy)pyrazol-5-yl-oxymethyl]-1,2-benzisothiazol-3(2H)-one 1,1-dioxide] | 0.31
COc1cc(C(C)C)c2c(c1)S(=O)(=O)N(COc1cc(C(F)(F)F)nn1C)C2=O [Example 25, 4-isopropyl-6-methoxy-2-(1-methyl-3-trifluoromethylpyrazol-5-yl-oxymethyl)-1,2-benzisothiazol-3(2H)-one 1,1-dioxide] | 0.1
COc1cc(C(C)C)c2c(c1)S(=O)(=O)N(COc1cc(C#N)nn1-c1ccccc1)C2=O [Example 35, 4-isopropyl-6-methoxy-2-(1-phenyl-3-cyanopyrazol-5-yl-oxymethyl)-1,2-benziso thiazol-3(2H)-one 1,1-dioxide] | 0.014
COc1cc(C(C)C)c2c(c1)S(=O)(=O)N(COc1cc(C#N)nn1-c1ccc(Cl)cc1)C2=O [Example 46, 4-isopropyl-6-methoxy-2-[1-(4-chlorophenyl)-3-cyanopyrazol-5-yl-oxymethyl]-1,2-benzisothiazol-3(2H)-one 1,1-dioxide] | 0.19
CCOc1cc(OCC)c2c(c1)S(=O)(=O)N(COc1cc(C(F)(F)F)nn1-c1ccccc1)C2=O [Example 47, 4,6-diethoxy-2-[1-phenyl-3-trifluoromethylpyrazol-5-yl-oxymethyl]-1,2-benzisothiazol-3(2H)-one 1,1-dioxide] | 0.5
COc1cc(C(C)C)c2c(c1)S(=O)(=O)N(COc1cc(C(F)(F)F)nn1Cc1ccccc1)C2=O [Example 48, 4-isopropyl-6-methoxy-2-[1-benzyl-3-trifluoromethylpyrazol-5-yl-oxymethyl]-1,2-benzisothiazol-3(2H)-one 1,1-dioxide] | 39
